Measured values as given in ChEMBL document CHEMBL1201862, “PubChem BioAssay data set” (2004).
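Results reflect a 48-hour exposure of cells in 96-well plates to compound at five concentrations. Here, GI50 denotes the concentration required for 50% inhibition of growth.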 Calls of active or inactive are those of the source. Cut-off read from the data, not from the text of the source: active = GI50 up to about 1.1 µM and inactive = higher.

Assays:
Experiment in all cases: NCI-60 cell line screen, 48 h
[1] = tested on: SF-268
[2] = tested on: K562
[3] = tested on: KM12
[4] = tested on: IGROV-1
[5] = tested on: SN12C
[6] = tested on: HOP-62
[7] = tested on: M14
[8] = tested on: BT-549
[9] = tested on: NCI-H226
[10] = tested on: Hs-578T
[11] = tested on: SW-620
[12] = tested on: HL-60
[13] = tested on: MDA-MB-231
[14] = tested on: NCI-H522
[15] = tested on: UO-31
[16] = tested on: SF-295
[17] = tested on: HT-29
[18] = tested on: SF-539
[19] = tested on: PC-3
[20] = tested on: SK-MEL-28

Measured: GI50

CCCCc1ccc(Nc2nc(O)c3ncn(COCCO)c3n2)cc1
inactive: [1] > 100 µM | [2] 29.8 µM | [3] > 100 µM | [4] > 100 µM | [5] > 100 µM | [6] > 100 µM | [7] > 100 µM | [8] > 100 µM | [9] > 100 µM | [10] > 100 µM | [11] > 100 µM | [12] > 100 µM | [13] > 100 µM | [14] > 100 µM | [15] > 100 µM | [16] > 100 µM | [17] > 100 µM | [18] > 100 µM

Cc1c2c(cc3c1C(=O)C(O)=C([C@@H](C)CO)C3=O)C(C)(C)CCC2
inactive: [1] 15 µM | [2] 38.7 µM | [3] 14.3 µM | [4] 29 µM | [5] 27.7 µM | [6] 22.4 µM | [7] 23.2 µM | [8] 35.2 µM | [9] 33.8 µM | [10] 16.7 µM | [11] 30.2 µM | [13] 23.4 µM | [19] 19.1 µM | [20] 28 µM | [14] 21.3 µM | [15] 17.5 µM | [16] 22.3 µM | [17] 15.8 µM

N#C/C(=C\c1ccc2ccccc2c1)C(=O)c1ccccc1
inactive: [1] 63.5 µM | [2] > 65.8 µM | [3] > 100 µM | [4] > 100 µM | [5] > 66.5 µM | [6] 20.8 µM | [7] > 64.9 µM | [8] 52.2 µM | [9] > 100 µM | [10] 22.2 µM | [11] 42.4 µM | [12] 30.9 µM | [19] 51.5 µM | [20] > 47 µM | [14] > 92 µM | [15] > 86.7 µM | [16] > 54.6 µM | [17] > 67.3 µM | [18] > 100 µM

Cc1csc2c1-n1cccc1C2=O
inactive: [1] > 100 µM | [2] > 100 µM | [3] > 100 µM | [4] > 100 µM | [5] > 100 µM | [6] 53 µM | [7] > 100 µM | [8] > 100 µM | [9] > 100 µM | [10] > 100 µM | [11] > 100 µM | [13] > 100 µM | [19] > 100 µM | [20] > 100 µM | [14] > 100 µM | [15] 43.3 µM | [16] > 100 µM | [17] > 100 µM
